The results in this text go back to patent publication US20200377568A1, “Novel IL-4-/IL-13-derived peptide compounds for the treatment or prevention of neurodegenerative or neuroinflammatory diseases” (Universitätsmedizin der Johannes Gutenberg-Universität Mainz, priority 2018, published 2020).

Entries after “also recorded” stand apart in the source; their conditions may differ.

The subject of assay [1] is dissociated cortical neurons. Nature of the assay: Phosphorylation of signalling molecules (Western blot). The format is cell-based, mouse. Particulars: 50 ng/ml, 10 min treatment, FIG. 5B. As to the method: A: Cortical outgrowth in response to 50 ng/ml IL-4, Link4, or Link13, compared to PBS control. The increase in growth at 48 h was calculated over the basal (untreated) growth at 24 h. B: Effects on phosphorylation of signalling molecules after 10 min treatment of dissociated cortical neurons with IL-4, Link4 or PBS.
Neonatal (P1-3) cortex explants were dissected from 250 μm thick vibratome (HM650V, Thermo Fisher) sections from Bregma 0 to −1.5 (motor cortex). Cortical layer V was micro-dissected, plated on poly-D-lysine (0.5 mg/ml) and laminin (1 mg/ml)-coated glass coverslips and grown for 24 h in neurobasal medium with 2% horse serum, 2% B27, 1% glutamax and 0.5% penicillin/streptomycin. Explants were treated for 48 h with rIL-4 (50 ng/ml), Link4 (50 ng/ml), Link13 (50 ng/ml) or PBS. Axon length was assessed using Adobe Photoshop by measuring the distance of the 40 longest axons, corrected for the initial growth at 24 h. […]
For Western blotting, the following primary antibodies were used: anti-IRS1 (EMD Millipore), anti-phospho-IRS1 (Cell Signaling Technology), anti-MAPK and anti-phospho-MAPK (Cell Signaling Technology), anti-PKCγ (Santa-Cruz), anti-phospho-PKCγ (Biozol). DyLight […]-coupled secondary antibodies were used for quantitative analysis of the proteins using the Li-Cor Odyssey FC imaging system (Li-Cor Bioscience). […]
On the technique in general: Immunoblotting shows a protein as a band on a membrane.

Assay [2] has as its system experimental autoimmune encephalomyelitis (EAE) mice. As to the kind of experiment: EAE clinical score, treatment during the chronic phase. Particulars: chronic phase of EAE, vs PBS. The format is in vivo, mouse. On the procedure:
To test whether Link4 has similar effects to IL-4 in vivo, two pilot experiments were performed. In the first experiment (FIG. 3A), B16 mice were subjected to EAE and treated with IL-4, Link4, Ph8 and PBS (n=6-7 animals per group) via lumbar intrathecal injection directly into the cerebrospinal fluid (CSF) every other day for 14 days, in the chronic phase of the disease starting from day 5 after the first disease peak (grey bar). […] For better clinical translation, the treatment was then switched to nasal treatment with IL-4 and Link4 (FIG. 3B; 2 pooled experiments, n=15-16 per group). Nasally applied treatments can enter the brain through the cribriform plate, where olfactory nerve fibers cross through the bone, resulting in a connection between the roof of the nasal cavity and the brain (C. F. Xiao, F. J. Davis, B. C. Chauhan, K. L. Viola, P. N. Lacor, P. T. Velasco, W. L. Klein, and N. B. Chauhan, Brain transit and ameliorative effects of intranasally delivered anti-amyloid-beta oligomer antibody in 5XFAD mice. J Alzheimers Dis 35, 777-788 (2013)). Again, both IL-4 and Link4 treatments were beneficial.
For active EAE, female 9-10-weeks-old C57BI6 mice were immunized as previously described (M. Paterka, J. O. Voss, J. Werr, E. Reuter, S. Franck, T. Leuenberger, J. Herz, H. Radbruch, T. Bopp, V. Siffrin, and F. Zipp, Dendritic cells tip the balance towards induction of regulatory T cells upon priming in experimental autoimmune encephalomyelitis. J Autoimmun 67, 108-114 (2017)) by subcutaneous injection of 200 μg myelin oligodendrocyte […] 35-55 (MOG35-55) mixed with complete Freund adjuvant (CFA). Following the MOG35-55 immunization 400 ng pertussis toxin (PTX) was administered intraperitoneally at the day of immunizaton and after 24 h. Clinical signs were scored using the following parameters:
Treatment with rIL-4 (1 μg, Peprotech), Ph8 (1 μg, custom synthesized, Schafer N), Link4 (1 μg, custom synthesized, Schafer N) or vehicle (PBS) was performed during the chronic phase of the disease models by lumbar intrathecal injection (R. Lu and A. Schmidtko, Direct intrathecal drug delivery in mice for detecting in vivo effects of cGMP on pain processing. Methods Mol Biol 1020, 215-221 (2013)) or nasal application of IL-4 and Link4 was performed according to published procedures (C. F. Xiao, F. J. Davis, B. C. Chauhan, K. L. Viola, P. N. Lacor, P. T. Velasco, W. L. Klein, and N. B. Chauhan, Brain transit and ameliorative effects of intranasally delivered anti-amyloid-beta oligomer antibody in SXFAD mice. J Alzheimers Dis 35, 777-788 (2013)). Mice were pre-trained to avoid stress and held at a 45 degree angle to apply IL-4 solution (1 μg, Peprotech) to the nostrils using a pipette tip.

Consider “RARSEIIGIGSKSIMQMDY (listed as Mus musculus) [Link4]”, for which the “phosphorylation of signalling molecules (neuronal signalling)” value in assay [1] is “same neuronal signalling effects as IL-4”. The clinical score result was “significant improvement in the clinical score; also recorded: significant amelioration of the clinical score” in assay [2] (lumbar intrathecal injection, 1 μg every other day for 14 days); “reducing disease symptoms” in assay [2] (lumbar intrathecal injection, 1 μg every other day for 14 days, listed as mouse Link4); “significant improvement in the clinical score; also recorded: beneficial” in assay [2] (nasal application).
